Results from patent US10668039B2, “Methods for treatment of adenoid cystic carcinoma” (THE CHILDREN'S MEDICAL CENTER CORPORATION, priority 2016, dated 2020).

Tested on: ACC PDX models
Assay: ATRA comparison TGI studies in ACC PDX models
Assay type: in vivo
Settings: ATRA 8 mg/kg to 32 mg/kg; tamibarotene 2 mg/kg
Description: The TGI studies in ACC PDX models were repeated in order to compare the original ATRA dose (3 or 4 mg/ml) against a more physiologically relevant dose of ATRA (8 mg/kg) and an alternative retinoid Tamibarotene (originally developed for ATRA-resistant cancer settings, approved in Japan and currently in development at Syros Pharmaceuticals).

## CC1(C)CCC(C)(C)c2cc(NC(=O)c3ccc(C(=O)O)cc3)ccc21 [tamibarotene, 4-[(1,1,4,4-tetramethyltetralin-6-yl)carbamoyl]benzoic acid]
  tumor growth inhibition in the PDX studies: showed tumor growth inhibition
